Measured values published in PubChem BioAssay (NCI).
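Exposure lasted 48 hours, with cells grown in 96-well plates and compounds tested at five concentrations. TGI marks complete inhibition of growth.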

Assays:
Test in all cases: NCI anticancer screen, dose series, 48 h
NCI-H522 lung = tested on: NCI-H522 lung
NCI-H460 lung = tested on: NCI-H460 lung
LOX IMVI melanoma = tested on: LOX IMVI melanoma
SF-295 CNS = tested on: SF-295 CNS
SK-MEL-2 melanoma = tested on: SK-MEL-2 melanoma
PC-3 prostate = tested on: PC-3 prostate
OVCAR-8 ovarian = tested on: OVCAR-8 ovarian
SR leukemia = tested on: SR leukemia
SF-268 CNS = tested on: SF-268 CNS
M14 melanoma = tested on: M14 melanoma
SK-MEL-5 melanoma = tested on: SK-MEL-5 melanoma
IGROV1 ovarian = tested on: IGROV1 ovarian
MDA-N = tested on: MDA-N
HOP-62 NSCLC = tested on: HOP-62 NSCLC
SW-620 colon = tested on: SW-620 colon
OVCAR-4 ovarian = tested on: OVCAR-4 ovarian
U251 CNS = tested on: U251 CNS
MALME-3M melanoma = tested on: MALME-3M melanoma
HCC-2998 colon = tested on: HCC-2998 colon
HL-60(TB) leukemia = tested on: HL-60(TB) leukemia
NCI/ADR-RES ovarian = tested on: NCI/ADR-RES ovarian
UACC-257 melanoma = tested on: UACC-257 melanoma
A498 renal = tested on: A498 renal
MDA-MB-435 = tested on: MDA-MB-435
T-47D breast = tested on: T-47D breast
SK-OV-3 ovarian = tested on: SK-OV-3 ovarian
CCRF-CEM leukemia = tested on: CCRF-CEM leukemia
SN12C renal = tested on: SN12C renal
MCF7 breast = tested on: MCF7 breast
SNB-19 CNS = tested on: SNB-19 CNS
MOLT-4 leukemia = tested on: MOLT-4 leukemia
DU-145 prostate = tested on: DU-145 prostate
HS 578T breast = tested on: HS 578T breast
MDA-MB-231 breast = tested on: MDA-MB-231 breast
EKVX NSCLC = tested on: EKVX NSCLC
OVCAR-5 ovarian = tested on: OVCAR-5 ovarian
SK-MEL-28 melanoma = tested on: SK-MEL-28 melanoma
UACC-62 melanoma = tested on: UACC-62 melanoma
NCI-H23 lung = tested on: NCI-H23 lung
K-562 leukemia = tested on: K-562 leukemia
CAKI-1 renal = tested on: CAKI-1 renal
786-0 renal = tested on: 786-0 renal
HT29 colon = tested on: HT29 colon
OVCAR-3 ovarian = tested on: OVCAR-3 ovarian
SNB-75 CNS = tested on: SNB-75 CNS
UO-31 renal = tested on: UO-31 renal
COLO 205 colon = tested on: COLO 205 colon
RXF 393 renal = tested on: RXF 393 renal
HCT-116 colon = tested on: HCT-116 colon
NCI-H226 lung = tested on: NCI-H226 lung
RPMI-8226 leukemia = tested on: RPMI-8226 leukemia
SF-539 CNS = tested on: SF-539 CNS
A549 NSCLC = tested on: A549 NSCLC
HCT-15 colon = tested on: HCT-15 colon
ACHN renal = tested on: ACHN renal
KM12 colon = tested on: KM12 colon
TK-10 renal = tested on: TK-10 renal
HOP-92 NSCLC = tested on: HOP-92 NSCLC

Measured: TGI

CN(C)C(n1cc2c(c1)-c1ccc(Cl)cc1C(c1ccccc1F)=NC2)n1cc2c(c1)-c1ccc(Cl)cc1C(c1ccccc1F)=NC2
77.2 µM: SNB-75 CNS
47.9 µM: LOX IMVI melanoma
24.4 µM: NCI-H23 lung
52.7 µM: MDA-N
66.6 µM: RXF 393 renal
not listed: KM12 colon | TK-10 renal | HOP-92 NSCLC
> 100 µM: all other assays above

CN(CC(=O)O)c1ncc2c(n1)CCCC2
not listed: HCC-2998 colon | T-47D breast
> 100 µM: all other assays above
